We go through 25 compounds from patent publication US20250221998A1, “DISCOVERY OF COVALENT EGFR INHIBITOR THROUGH CYSTEINE 775” (Dana-Farber Cancer Institute, Inc., priority 2022, published 2025).

The target in assay [1] is EGFR mutant L858R Ba/F3 cells (Homo sapiens, UniProt P00533, L858R, cells depend on it). The experiment in a line: Ba/F3 cell proliferation (Cell Titer Glo), EGFR L858R. Type of assay: cell-based, murine. The settings on record: 72 hours exposure, read-out: L858R BaF3 (μM), inhibitory activity against EGFR mutants. An excerpt: (§1) The EGFR mutant L858R Ba/F3 cells have been previously described (Zhou, W., et al. Nature 462, 2009, 1070-1074). The EGFR C797S and C775S mutations were introduced via site directed mutagenesis using the Quick Change Site-Directed Mutagenesis kit into a vector containing EGFR L858R mutation (Stratagene; La Jolla, CA) according to the manufacturer's instructions. All constructs were confirmed by DNA sequencing. The constructs were then shuttled into the retroviral vector JP1540 by either using the Cre-recombination system (Agilent Technologies, Santa Clara, CA) or the In-fusion HD Cloning kit (Takara Bio USA, Inc.; Mountain view, CA). Ba/F3 cells were then infected with retrovirus per standard protocols, as described previously (Zhou, et al, Nature 2009). Stable clones were obtained by selection in puromycin (2 ug/ml). All BaF/3 mutant cells were maintained in RPMI 1640 (Cellgro; Mediatech Inc., Herndon, CA) supplemented with 10% FBS, 100 units/mL penicillin, 100 units/mL streptomycin.
(§2) Growth and inhibition of growth was assessed by the Cell Titer Glo assay (Promega, Madison, WI) and was performed according to the manufacturer's instructions. The Cell Titer Glo assay is a luminescence-based method used to determine the number of viable cells based on quantitation of the ATP present, which is directly proportional to the amount of metabolically active cells present. Ba/F3 cells of different EGFR genotypes were exposed to compounds for 72 hours and the number of cells used per experiment was determined empirically as has been previously established (Zhou, et al., Nature 2009). All experimental points were set up in triplicates in 384-well plates. […] The curves were fitted using a non-linear regression model with a sigmoidal dose response.
(§3) For inhibitory activity against EGFR mutants, the following designations are used: ≤0·25 μM=A, 0·25 μM˜0.5 μM=B, 0.5 μM˜2.5 μM=C, ≥2.5 μM=D.
For orientation: ATP-based viability assays read luminescence as a measure of living cells.

The target of assay [2] is EGFR L858R/C797S Ba/F3 cells (Homo sapiens, UniProt P00533, C797S/L858R, cells depend on it). Briefly: Ba/F3 cell proliferation (Cell Titer Glo), EGFR L858R/C797S. The format is cell-based, murine. The settings on record: 72 hours exposure, read-out: L858R/C797S (μM), inhibitory activity against EGFR mutants.
Text: as §1, §2, §3

SMILES strings stand for the structures.

Sequence of EGFR mutant L858R Ba/F3 cells (P00533 whole entry L858R): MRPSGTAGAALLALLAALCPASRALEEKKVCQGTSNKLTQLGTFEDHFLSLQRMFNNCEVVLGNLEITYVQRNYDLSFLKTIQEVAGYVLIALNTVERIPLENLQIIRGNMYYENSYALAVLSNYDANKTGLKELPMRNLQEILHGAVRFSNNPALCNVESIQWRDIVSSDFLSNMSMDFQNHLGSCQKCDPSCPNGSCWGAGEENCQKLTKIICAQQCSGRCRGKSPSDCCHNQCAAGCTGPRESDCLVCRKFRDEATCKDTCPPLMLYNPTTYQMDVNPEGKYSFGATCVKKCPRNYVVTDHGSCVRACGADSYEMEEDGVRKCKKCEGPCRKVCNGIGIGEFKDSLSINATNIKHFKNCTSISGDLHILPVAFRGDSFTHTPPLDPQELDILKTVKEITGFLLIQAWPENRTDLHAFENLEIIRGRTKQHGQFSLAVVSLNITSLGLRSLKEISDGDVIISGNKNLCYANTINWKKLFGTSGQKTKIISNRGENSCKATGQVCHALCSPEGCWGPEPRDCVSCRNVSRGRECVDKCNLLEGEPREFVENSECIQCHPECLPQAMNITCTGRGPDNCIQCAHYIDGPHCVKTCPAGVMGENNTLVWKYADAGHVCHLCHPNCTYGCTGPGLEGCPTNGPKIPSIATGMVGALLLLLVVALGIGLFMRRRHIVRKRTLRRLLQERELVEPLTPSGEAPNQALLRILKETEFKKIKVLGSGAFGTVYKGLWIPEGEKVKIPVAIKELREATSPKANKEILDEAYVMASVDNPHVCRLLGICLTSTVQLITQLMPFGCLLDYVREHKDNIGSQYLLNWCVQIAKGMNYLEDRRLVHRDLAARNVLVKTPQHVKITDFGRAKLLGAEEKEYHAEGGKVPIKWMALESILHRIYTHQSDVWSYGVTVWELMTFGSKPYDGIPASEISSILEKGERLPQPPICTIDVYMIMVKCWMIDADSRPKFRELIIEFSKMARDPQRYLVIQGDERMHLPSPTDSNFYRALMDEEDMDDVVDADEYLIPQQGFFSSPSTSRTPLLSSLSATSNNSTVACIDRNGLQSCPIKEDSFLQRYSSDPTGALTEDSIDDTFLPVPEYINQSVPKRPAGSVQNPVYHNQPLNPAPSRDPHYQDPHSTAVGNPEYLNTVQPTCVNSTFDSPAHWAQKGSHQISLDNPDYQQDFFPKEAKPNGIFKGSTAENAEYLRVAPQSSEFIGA
Sequence of EGFR L858R/C797S Ba/F3 cells (P00533 whole entry C797S/L858R): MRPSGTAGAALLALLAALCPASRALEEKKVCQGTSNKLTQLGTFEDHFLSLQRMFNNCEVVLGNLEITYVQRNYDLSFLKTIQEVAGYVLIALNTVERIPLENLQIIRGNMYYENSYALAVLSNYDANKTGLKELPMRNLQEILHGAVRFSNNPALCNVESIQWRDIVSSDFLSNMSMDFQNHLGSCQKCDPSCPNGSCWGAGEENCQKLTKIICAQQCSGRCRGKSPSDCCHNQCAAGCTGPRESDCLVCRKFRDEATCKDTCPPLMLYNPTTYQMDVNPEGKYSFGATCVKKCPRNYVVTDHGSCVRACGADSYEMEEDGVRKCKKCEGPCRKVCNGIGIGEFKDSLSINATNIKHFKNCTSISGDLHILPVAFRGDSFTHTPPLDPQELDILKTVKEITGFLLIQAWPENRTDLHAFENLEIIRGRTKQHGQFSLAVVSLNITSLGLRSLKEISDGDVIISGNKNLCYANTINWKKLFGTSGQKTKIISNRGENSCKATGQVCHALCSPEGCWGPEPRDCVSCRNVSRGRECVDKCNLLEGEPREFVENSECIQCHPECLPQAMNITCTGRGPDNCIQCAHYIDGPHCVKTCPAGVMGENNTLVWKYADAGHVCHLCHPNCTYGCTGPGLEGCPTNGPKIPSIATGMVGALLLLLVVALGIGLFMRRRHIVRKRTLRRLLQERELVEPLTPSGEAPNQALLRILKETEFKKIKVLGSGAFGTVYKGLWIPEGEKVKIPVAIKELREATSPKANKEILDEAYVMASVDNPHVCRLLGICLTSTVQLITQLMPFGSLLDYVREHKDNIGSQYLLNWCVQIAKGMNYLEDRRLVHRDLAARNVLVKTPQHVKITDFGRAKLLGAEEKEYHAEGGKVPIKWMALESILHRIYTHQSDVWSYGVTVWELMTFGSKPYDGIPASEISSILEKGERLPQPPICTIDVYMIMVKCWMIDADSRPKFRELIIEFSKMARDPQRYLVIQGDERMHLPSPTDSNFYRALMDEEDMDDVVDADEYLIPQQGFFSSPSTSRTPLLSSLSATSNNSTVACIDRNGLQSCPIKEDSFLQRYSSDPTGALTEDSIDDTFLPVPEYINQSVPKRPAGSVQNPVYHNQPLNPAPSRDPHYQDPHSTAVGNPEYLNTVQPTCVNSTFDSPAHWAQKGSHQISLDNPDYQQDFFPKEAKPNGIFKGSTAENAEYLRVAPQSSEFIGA

In the case of `C=CC(=O)N1CCN(c2cc3cnc(Nc4ccccc4)nc3n(C3CC(OC)C3)c2=O)c2cccc(C)c21` (centres unmarked) [Compound 084, 2-anilino-8-(3-methoxycyclobutyl)-6-(5-methyl-4-prop-2-enoyl-2,3-dihydroquinoxalin-1-yl)pyrido[2,3-d]pyrimidin-7-one], the GI50 in assay [1] and in assay [2] was ≤ 0.25 µM throughout.

On to `C=CC(=O)N1CCN(c2cc3cnc(Nc4ccc(OCCN(C)C)cc4)nc3n([C@H]3C[C@](C)(O)C3)c2=O)c2cccc(C)c21` [Compound 057, 2-[4-[2-(dimethylamino)ethoxy]anilino]-8-((1r,3r)-3-hydroxy-3-methyl-cyclobutyl)-6-(5-methyl-4-prop-2-enoyl-2,3-dihydroquinoxalin-1-yl)pyrido[2,3-d]pyrimidin-7-one], for which the GI50 in assay [1] and in assay [2] was ≤ 0.25 µM in each case.

Take `C=CC(=O)N1CCN(c2cc3cnc(Nc4ccc(OCCN(C)C)cc4)nc3n(CCO)c2=O)c2cccc(C)c21` [Compound 047, 2-[4-[2-(dimethylamino)ethoxy]anilino]-8-(2-hydroxyethyl)-6-(5-methyl-4-prop-2-enoyl-2,3-dihydroquinoxalin-1-yl)pyrido[2,3-d]pyrimidin-7-one]: the GI50 in assay [1] and in assay [2] was ≤ 0.25 µM throughout.

As to `C=CC(=O)N1CCN(c2cc3cnc(N)nc3n([C@H]3CC[C@](C)(O)CC3)c2=O)c2cccc(C)c21` [Compound 087, 6-(4-acryloyl-5-methyl-3,4-dihydroquinoxalin-1 (2H)-yl)-2-amino-8-((1r,4r)-4-hydroxy-4-methylcyclohexyl)pyrido[2,3-d]pyrimidin-7 (8H)-one], the GI50 in assay [1] and in assay [2] was ≤ 0.25 µM in each case.

Regarding `C=CC(=O)N1CCN(c2cc3cnc(N)nc3n(-c3ccc(CN4CCN(C)CC4)cc3)c2=O)c2cccc(C)c21` [Compound 103, 2-amino-8-[4-[(4-methylpiperazin-1-yl)methyl]phenyl]-6-(5-methyl-4-prop-2-enoyl-2,3-dihydroquinoxalin-1-yl)pyrido[2,3-d]pyrimidin-7-one], the GI50 in assay [1] was 0.25 to 0.5 µM; in assay [2], 0.5 to 2.5 µM.

Consider `C=CC(=O)N1CCN(c2cc3cnc(Nc4ccc(N5CCN(C)CC5)cc4OC)nc3n(C)c2=O)c2cccc(C)c21` [Compound 029], for which the GI50 in assay [1] and in assay [2] was ≤ 0.25 µM throughout.

As to `C=CC(=O)N1CCN(c2cc3cnc(Nc4ccc(OCCN(C)C)cc4)nc3n(C)c2=O)c2cccc(OC)c21` [Compound 074], the GI50 in assay [1] and in assay [2] was ≤ 0.25 µM throughout.

For `C=CC(=O)N1CCN(c2c(F)c3cnc(Nc4ccc(N5CCN(C)CC5)cc4)nc3n(C)c2=O)c2cccc(C)c21` [Compound 054, 5-fluoro-8-methyl-2-[4-(4-methylpiperazin-1-yl)anilino]-6-(5-methyl-4-prop-2-enoyl-2,3-dihydroquinoxalin-1-yl)pyrido[2,3-d]pyrimidin-7-one], the GI50 in assay [1] and in assay [2] was ≤ 0.25 µM throughout.

As to `C=CC(=O)N1CCN(c2cc3cnc(Nc4ccc(OCCN(C)C)cc4)nc3n([C@H]3C[C@@H](O)C3)c2=O)c2cccc(C)c21` [Compound 043], the GI50 in assay [1] and in assay [2] was ≤ 0.25 µM in each case.

Turning to `C=CC(=O)N1CCN(c2cc3cnc(Nc4ccc(N5CCN(C)CC5)cc4)nc3n(C)c2=O)C2(CC2)C1` [Compound 012, 8-methyl-2-[4-(4-methylpiperazin-1-yl)anilino]-6-(7-prop-2-enoyl-4,7-diazaspiro[2.5]octan-4-yl)pyrido[2,3-d]pyrimidin-7-one], the GI50 in assay [1] and in assay [2] was ≥ 2.5 µM in each case.

As to `C=CC(=O)N1CCN(c2cc3cnc(Nc4cnn(CCO)c4)nc3n(C)c2=O)c2cccc(C)c21` [Compound 038], the GI50 in assay [1] and in assay [2] was ≤ 0.25 µM throughout.

Take `CCC(=O)N1CCN(c2cc3cnc(Nc4ccc(N5CCN(C)CC5)cc4)nc3n(C)c2=O)c2cccc(C)c21` [Compound 026]: the GI50 in assay [1] and in assay [2] was 0.5 to 2.5 µM each time.

For the compound `C=CC(=O)N1CCN(c2cc3cnc(Nc4ccc(CN5CCN(C)CC5)cc4)nc3n(C)c2=O)c2cccc(C)c21` [Compound 050], the GI50 in assay [1] and in assay [2] was ≤ 0.25 µM each time.

`C=CC(=O)N1CCN(c2cc3cnc(Nc4cnn(CCO)c4)nc3n(C)c2=O)c2cccc(OC)c21` [Compound 020, 2-[[1-(2-hydroxyethyl)pyrazol-4-yl]amino]-6-(5-methoxy-4-prop-2-enoyl-2,3-dihydroquinoxalin-1-yl)-8-methyl-pyrido[2,3-d]pyrimidin-7-one]: the GI50 was ≤ 0.25 µM in assay [1] and 0.25 to 0.5 µM in assay [2].

As to `C=CC(=O)N1CCN(c2cc3cnc(N)nc3n(-c3ccc(CN4CCOCC4)cc3)c2=O)c2cccc(C)c21` [Compound 094, 2-amino-6-(5-methyl-4-prop-2-enoyl-2,3-dihydroquinoxalin-1-yl)-8-[4-(morpholinomethyl)phenyl]pyrido[2,3-d]pyrimidin-7-one], the GI50 in assay [1] and in assay [2] was ≤ 0.25 µM throughout.

As to `C=CC(=O)N1CCN(c2cc3cnc(NC4CC4)nc3n(-c3ccc(N(C)CCOC)cc3)c2=O)c2cccc(C)c21` [Compound 100, 2-(cyclopropylamino)-8-[4-[2-methoxyethyl(methyl)amino]phenyl]-6-(5-methyl-4-prop-2-enoyl-2,3-dihydroquinoxalin-1-yl)pyrido[2,3-d]pyrimidin-7-one], the GI50 in assay [1] and in assay [2] was ≤ 0.25 µM each time.

Consider `C=CC(=O)N1CCN(c2cc3cnc(Nc4ccc(OCCN(C)C)c(F)c4)nc3n(C)c2=O)c2cccc(C)c21` [Compound 075], for which the GI50 in assay [1] and in assay [2] was ≤ 0.25 µM in each case.

On to `C=CC(=O)N1CCN(c2cc3cnc(Nc4ccc(N5CCN(C)CC5)cc4)nc3n(C)c2=O)C(=O)C1` [Compound 025, 8-methyl-2-[4-(4-methylpiperazin-1-yl)anilino]-6-(2-oxo-4-prop-2-enoyl-piperazin-1-yl)pyrido[2,3-d]pyrimidin-7-one], for which the GI50 in assay [1] and in assay [2] was ≥ 2.5 µM in each case.

Turning to `C=CC(=O)N1CCN(c2cc3cnc(Nc4ccc(N5CCN(C)CC5)cc4F)nc3n(C)c2=O)c2cccc(C)c21` [Compound 036], the GI50 in assay [1] and in assay [2] was ≤ 0.25 µM in each case.

On to `C=CC(=O)N1CCN(c2cc3cnc(N)nc3n(-c3ccc(OCCN(C)C)c(F)c3)c2=O)c2cccc(C)c21` [Compound 104, 2-amino-8-[4-[2-(dimethylamino)ethoxy]-3-fluoro-phenyl]-6-(5-methyl-4-prop-2-enoyl-2,3-dihydroquinoxalin-1-yl)pyrido[2,3-d]pyrimidin-7-one], for which the GI50 in assay [1] and in assay [2] was ≤ 0.25 µM each time.

As for `C=CC(=O)N1CCN(c2cc3cnc(Nc4ccc(N5CCN(C)CC5)nc4)nc3n(C)c2=O)c2cccc(C)c21` [Compound 031], the GI50 in assay [1] and in assay [2] was ≤ 0.25 µM each time.

Regarding `C=CC(=O)N1CCN(c2cc3cnc(Nc4ccc(N5CCN(C)CC5)cc4)nc3n(-c3cccnc3)c2=O)c2cccc(C)c21` [Compound 052, 2-[4-(4-methylpiperazin-1-yl)anilino]-6-(5-methyl-4-prop-2-enoyl-2,3-dihydroquinoxalin-1-yl)-8-(3-pyridyl)pyrido[2,3-d]pyrimidin-7-one], the GI50 in assay [1] and in assay [2] was ≤ 0.25 µM throughout.

On to `C=CC(=O)N1CCN(c2cc3cnc(NC4CC4)nc3n(CC3CCOC3)c2=O)c2cccc(C)c21` (centres unmarked) [Compound 106, 2-(cyclopropylamino)-6-(5-methyl-4-prop-2-enoyl-2,3-dihydroquinoxalin-1-yl)-8-(tetrahydrofuran-3-ylmethyl)pyrido[2,3-d]pyrimidin-7-one], for which the GI50 in assay [1] was ≤ 0.25 µM; in assay [2], 0.25 to 0.5 µM.

For `C=CC(=O)N1CCN(c2cc3cnc(Nc4ccc(N5CCC(O)CC5)cc4)nc3n(C)c2=O)c2cccc(C)c21` [Compound 027, 2-[4-(4-hydroxy-1-piperidyl)anilino]-8-methyl-6-(5-methyl-4-prop-2-enoyl-2,3-dihydroquinoxalin-1-yl)pyrido[2,3-d]pyrimidin-7-one], the GI50 in assay [1] and in assay [2] was ≤ 0.25 µM throughout.

Regarding `C=CC(=O)N1CCN(c2cc3cnc(Nc4ccc(N5CCN(C)CC5)cc4)nc3n(C)c2=O)c2cccc(N)c21` [Compound 065, 6-(5-amino-4-prop-2-enoyl-2,3-dihydroquinoxalin-1-yl)-8-methyl-2-[4-(4-methylpiperazin-1-yl)anilino]pyrido[2,3-d]pyrimidin-7-one], the GI50 in assay [1] and in assay [2] was ≤ 0.25 µM throughout.
